“And” between values parts separate entries of the source, which are not always exact repeats. Equal entries are not always repeated.
System: rabbit aortic endothelial cells (RAEC)
Experiment: Cord formation on Matrigel (in vitro angiogenesis assay)
Format: cell-based
Conditions: 18-24 h; for Percent Increase in Cord length, Set I / Percent Increase in Cord length, Set II / Percent Increase in Cord length, Set III: individual picture scores; for Percent Increase in Cord length, Mean: mean of 18 scores
Method: In carrying this invention, materials needed in this example include commercially available items as follows: a 96 Well Plate, for example, flat bottom 96 well plate (Falcon 353072); Media-BM-2 (Clonetics CC-3162), DMEM (Gibco Cat#11960044); Matrigel-Beckton Dickinson (Cat#40234); Cells; HUVEC (2×10^6/ml) in EBM-2 in EBM-2; and Image Analysis-Image-Pro Plus In this example, the assay is performed under hood is, a Laminar Flow Hood. Frozen Matrigel (Beckton Dickinson 40234) is placed overnight on ice to thaw. Then, a concentration of matrigel is adjusted to 10 mg/ml using DMEM media. An ice cold 96 well plate is then placed on ice in a flat dish. Using an ice cold tip, gently layer 60 μl of matrigel (10 mg/ml; kept on ice) in each well. Gently tap the plate so that matrigel is evenly distributed in each well. The assay thereafter involves the following steps and protocols of: Removing the ice under the plate and incubate the plate for 15 min at room temperature; transfer the plate to a 37° C. incubator for at least 30 min for the Matrigel to polymerize; prepare methanandamide at 2X the desired concentration in culture media; harvest RAEC (rabbit aortic endothelial cells) in culture media and adjust the cell density to 2×10^5/ml; mix 500 μl of drug with 500 μl of cell suspension and place 200 μl of this suspension in duplicate wells on polymerized matrigel (being cautious to not touch matrigel with the tip and to dispense cells very gently and slowly on the matrigel to avoid damage to matrigel layer); incubate the compound concentration in a 37° C. humidified incubator for 18-24 h observe condition of cords under a microscope.; take at least three pictures (10 X) from different fields from each well (or six pictures from duplicate wells); count number of junctions and tube length (mm) from each picture using Image Pro Image Analysis System; and analyze the data.
In accordance with a preferred embodiment of the present invention, the effect of methanandamide on rabbit aortic endothelial cells (RAEC) was tested for its ability to induce cord formation on matrigel. This process entails an accepted in vitro assay for angiogenesis. The procedures involve analyses with three different concentrations of methanandamide compound and repeated the experiments three different times in duplicate. As mentioned earlier above in the protocol, the 3 pictures from each well were taken. Therefore, for each concentration (data point) we have 18 scores. The analysis entails the measure of two parameters: (1) cord length; and (2) cord junction number.
In FIG. 1, there is shown representations for eighteen (18) scores of data points for each concentration of methanandamide compound analyzed. The scores indicated for each concentration of methanandamide resulted from three different concentrations of methanandamide, i.e. 10 nM, 50 nM, and 100 nM. Three (3) pictures taken from each field or well (Six (6) pictures for duplicate wells). Each treatment or analysis was done in duplicate in 3 separate sets, i.e., Set I, Set II, and Set III. Therefore, for each concentration data point has eighteen (18) scores (3×2×3=18 data points).

`CCCCC/C=C\C/C=C\C/C=C\C/C=C\CCCC(=O)N[C@H](C)CO` [Methanandamide, methyl arachidonyl ethanolamide] was tested, and the “Percent Increase in Cord length, Set I” value (Methanandamide 10 nM) was 12% (2×) and 11% and 9% and 13% and 10%, the “Percent Increase in Cord length, Set II” value (Methanandamide 10 nM) was 16% and 21% and 14% and 18% and 13% and 12% and the “Percent Increase in Cord length, Set III” value (Methanandamide 10 nM) was 14% and 10% and 17% (2×) and 13% and 15%. For the same compound, the “Percent Increase in Cord length, Mean” value (Methanandamide 10 nM) was 14%, the “Percent Increase in Cord length, Set I” value (Methanandamide 50 nM) was 17% and 22% and 25% and 32% (2×) and 19% and the “Percent Increase in Cord length, Set II” value (Methanandamide 50 nM) was 17% and 26% and 22% (2×) and 28% and 18%. The “Percent Increase in Cord length, Set III” value (Methanandamide 50 nM) was 34% and 25% and 30, 30, Percent (2×) and 26% and 35%, the “Percent Increase in Cord length, Mean” value (Methanandamide 50 nM) was 25% and the “Percent Increase in Cord length, Set I” value (Methanandamide 100 nM) was 45% and 42% (2×) and 39% and 47% and 40%. For the same compound, the “Percent Increase in Cord length, Set II” value (Methanandamide 100 nM) was 37% and 41% and 44% (2×) and 32% and 34%, the “Percent Increase in Cord length, Set III” value (Methanandamide 100 nM) was 38% and 42% and 44% and 47% and 36% and 34% and the “Percent Increase in Cord length, Mean” value (Methanandamide 100 nM) was 40%.

From patent US20070244200A1, “Method for triggering angiogenic response” (priority 2006, published 2007)
